Results published in US11045519B2, “Arginine-rich polypeptide compositions and methods of using same” (UNM Rainforest Innovations, priority 2017, dated 2021).

Experiments:
HPV16 PsVs = experiment: Post-attachment and time-course HPV16 PsV infection of HaCaT cells; type: cell-based
Experimental: FIG. 6. PolyR inhibits HPV16 PsV infection at pre-attachment and post-attachment stages. (A) Infection of HaCaT cells with HPV16. Semi-confluent HaCaT cells were left untreated with polyR (H16) or exposed to HPV16 PsV 1 h before (polyR/H16) or one hour after […] (H16/PolyR) treatment, were subjected to infectivity measurements after a 24-hour incubation at 37° C. (as described in FIG. 1). (B) Time-course experiments of HPV infection in the absence or presence of polyR. Untreated control cells were infected with HPV16 PsV (HPV16). HaCaT cells were treated with 1 μM polyR before (+1 h polyR/HPV16), concurrently (0 h polyR/HPV16) or at one hour, two hours, four hours, six hours, or eight hours post-attachment of HPV16 PsVs. Infection was scored at 24 hours post HPV attachment and shift to 37° C.
FIG. 18. PrS post-attachment effect on HPV infection. HaCaT cell were incubated with 500 vge/cell HPV PsVs at RT for one hour before addition of 1.5 μM PrS complexed with 0.1% HMW HA or with 3 μM LMW HA. Infection scored 24 after infection as described in FIG. 12.
FIG. 20. Time-course experiments of HPV infection in the presence of PrS or HA:PrS complex. (A) PrS; (B) HA:PrS complex. HaCaT cells were treated with 2 μM PrS or 2 μM PrS associated with 0.1% HMW HA at indicated times post-attachment of HPV16 PsVs, and infection was scored 24 hours after infection as described in FIG. 12. Time-point zero represents initial PsV inoculation.
The data above show clearly that polyR can inhibit HPV binding to cells and infection, but that polyR cannot displace HPV after bound to cells. To determine whether polyR can alter HPV infectivity if it is present after HPV is bound to cells, the infection levels of virus-exposed cells that are either pre-treated with polyR before virus binding, polyR-treated after HPV binding, or untreated with polyR were compared. […] This indicates a second mechanism whereby polyR can block HPV infection after virus is bound to cells.
Next, the effectiveness of polyR treatment in blocking infection when added at increasing times post HPV binding to cells was tested. This time-course experiment confirmed that polyR affects post-attachment stages of virus infection. HaCaT cells were treated with polyR one hour prior to virus exposure, concurrently with virus exposure, and at increasing times after virus was bound and unbound virus was removed. Infection efficiency was measured after a 24-hour incubation at 37° C. The cells infected with HPV16 PsV in the absence of polyR (FIG. 6B, HPV16) was considered as 100% infection efficiency.
To investigate PrS post-attachment effect on infection, HaCaT cell were exposed with HPV PsVs at room temperature for one hour before addition of PrS complexed with heavy molecular weight (HMW) HA or with low molecular weight (LMW) HA.
Time-course experiments in which HaCaT cells were exposed to PrS or PrS:HA complex at various times after attachment with HPV16 PsVs confirmation this mechanism.

recombinant His-furin = target: T1, recombinant His-furin (Homo sapiens, UniProt P09958); experiment: Furin cleavage of HPV16 L2 capsid protein (immunoblot); type: biochemical; conditions: 1 μM, 3 nM His-furin, 2 h
T1 construct: His
Experimental: FIG. 9. PolyR inhibits HPV16 L2 protein cleavage by furin and induces accumulation of internalized virus particles in late endosomal fraction. (A) Equal amount of HPV16 diluted in 50 μl furin assay buffer (1 mM CaCl2), 100 mM HEPES, 0.5% Triton X-100, 1 mM β-mercaptoethanol) was loaded into six tubes, […], in the presence of 1.3 μM furin inhibitor1 (Merck Millipore Corp., Burlington, Mass.), or 1 μM polyR. Samples were mixed with SDS-PAGE sample buffer and boiled before fractionation on 9% gel. Proteins were transferred onto PVDF membranes and after blocking, incubated with affinity-purified rabbit anti-HPV16 polyclonal antibody. Secondary donkey anti-rabbit horseradish peroxidase-coupled antibody was used for detection of HPV16 capsid proteins. (B) HaCaT cells grown on coverslips were incubated with HPV16 PsVs for one hour at 37° C. to initiate virus binding (and partial internalization) before adding 1 μM polyR and further incubated for seven hours. […]
Cleavage of the L2 minor capsid protein by the cellular pro-protein convertase, furin, is an essential step in infectious entry of HPVs. […] After two hours of incubation, HPV16 cleavage was assessed by immunoblotting using anti-HPV 16 polyclonal antibody. […]

T1 sequence (P09958 108-794): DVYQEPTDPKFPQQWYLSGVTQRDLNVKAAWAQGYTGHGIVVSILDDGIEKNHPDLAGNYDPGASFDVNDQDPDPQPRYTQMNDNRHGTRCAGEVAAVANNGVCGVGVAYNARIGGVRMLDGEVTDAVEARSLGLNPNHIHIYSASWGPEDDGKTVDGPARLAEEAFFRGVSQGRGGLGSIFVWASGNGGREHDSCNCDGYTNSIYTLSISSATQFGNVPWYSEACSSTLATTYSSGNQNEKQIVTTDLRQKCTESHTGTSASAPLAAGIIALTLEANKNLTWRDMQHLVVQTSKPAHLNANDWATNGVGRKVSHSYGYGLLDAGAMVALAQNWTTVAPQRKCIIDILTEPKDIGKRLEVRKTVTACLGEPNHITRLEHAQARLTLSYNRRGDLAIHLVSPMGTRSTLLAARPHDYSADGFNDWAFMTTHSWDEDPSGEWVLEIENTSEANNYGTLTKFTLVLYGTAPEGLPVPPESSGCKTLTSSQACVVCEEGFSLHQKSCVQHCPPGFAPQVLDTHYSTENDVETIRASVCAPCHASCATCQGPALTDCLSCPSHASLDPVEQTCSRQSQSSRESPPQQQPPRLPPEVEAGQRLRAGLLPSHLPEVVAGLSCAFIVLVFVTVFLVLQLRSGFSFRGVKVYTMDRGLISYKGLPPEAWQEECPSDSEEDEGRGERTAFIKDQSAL

poly-L-arginine [polyR]
inhibition of HPV16 infection (HPV16 PsVs; 1 μM, added 1 h before virus exposure): > 95%
inhibition of HPV16 infection (HPV16 PsVs; 1 μM, added 1 h to 2 h post HPV binding): Strong infection inhibition
reduction in HPV infection (HPV16 PsVs; 1 μM, added 4 h post infection): approximately 75%
inhibition of HPV16 infection (HPV16 PsVs; 1 μM, added 6 h to 8 h post infection): Only mild inhibition
inhibition of HPV16 infection (HPV16 PsVs; 1 μM, added simultaneously with HPV (0 h)): same magnitude of infection inhibition
inhibition of infection when added after virus binding versus before (HPV16 PsVs; 2 μM, 1 h after versus 1 h before HPV16 PsV, 24 h): as effective at inhibiting HPV infection when added after virus was bound to cells as it was when added prior to virus exposure
furin cleavage of L2 capsid protein (recombinant His-furin): inhibited cleavage of the L2 capsid protein
